Test results: ChEMBL document CHEMBL1152288, “Characterization of thien-2-yl 1S,2R-milnacipran analogues as potent norepinephrine/serotonin transporter inhibitors for the treatment of neuropathic pain” (J Med Chem, 2008)
Active and inactive are the calls of the source. No cut-off for these calls is given here.

Columns and labels:
Transporter = Transporter (Rattus norvegicus, UniProt Q63380); experiment: biochemical
Description: Displacement of Levo[ring-2,5,6-3H]norepinephrine from rat synaptosomal NET expressed in HEK293 cells by microplate scintillation counter

Rattus norvegicus [1] = experiment: Antinociceptive activity in CD rat assessed as reduction in number of hind paw flinching at 60 mg/kg, po by formalin test; assay type: functional; design: scale not given: the % may be the effect or the level left
[2] = biological target: Sodium-dependent serotonin transporter (Rattus norvegicus, UniProt P31652); assay type: cell-based, HEK293
Sodium-dependent serotonin transporter (Rattus norvegicus, UniProt P31652), sequence (P31652 whole entry): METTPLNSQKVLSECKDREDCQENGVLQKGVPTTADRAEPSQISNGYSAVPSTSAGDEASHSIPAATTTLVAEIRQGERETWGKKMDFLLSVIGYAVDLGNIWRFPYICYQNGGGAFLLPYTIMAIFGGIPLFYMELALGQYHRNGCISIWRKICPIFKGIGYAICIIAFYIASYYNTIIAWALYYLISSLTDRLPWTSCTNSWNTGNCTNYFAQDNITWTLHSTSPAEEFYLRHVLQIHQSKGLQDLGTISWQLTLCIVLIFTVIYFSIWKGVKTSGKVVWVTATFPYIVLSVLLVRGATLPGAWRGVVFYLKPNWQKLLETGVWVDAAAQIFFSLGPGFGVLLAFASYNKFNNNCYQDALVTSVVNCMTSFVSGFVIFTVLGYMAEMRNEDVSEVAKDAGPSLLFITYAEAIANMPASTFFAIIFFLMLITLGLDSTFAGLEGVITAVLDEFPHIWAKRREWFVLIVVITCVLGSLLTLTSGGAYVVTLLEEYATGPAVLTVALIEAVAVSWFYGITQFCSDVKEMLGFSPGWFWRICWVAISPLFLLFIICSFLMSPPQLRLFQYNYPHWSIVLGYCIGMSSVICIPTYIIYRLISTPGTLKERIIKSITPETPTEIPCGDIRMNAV

[3] = biological target: Sodium-dependent dopamine transporter (Rattus norvegicus, UniProt P23977); experiment: biochemical
Sodium-dependent dopamine transporter (Rattus norvegicus, UniProt P23977), sequence (P23977 whole entry): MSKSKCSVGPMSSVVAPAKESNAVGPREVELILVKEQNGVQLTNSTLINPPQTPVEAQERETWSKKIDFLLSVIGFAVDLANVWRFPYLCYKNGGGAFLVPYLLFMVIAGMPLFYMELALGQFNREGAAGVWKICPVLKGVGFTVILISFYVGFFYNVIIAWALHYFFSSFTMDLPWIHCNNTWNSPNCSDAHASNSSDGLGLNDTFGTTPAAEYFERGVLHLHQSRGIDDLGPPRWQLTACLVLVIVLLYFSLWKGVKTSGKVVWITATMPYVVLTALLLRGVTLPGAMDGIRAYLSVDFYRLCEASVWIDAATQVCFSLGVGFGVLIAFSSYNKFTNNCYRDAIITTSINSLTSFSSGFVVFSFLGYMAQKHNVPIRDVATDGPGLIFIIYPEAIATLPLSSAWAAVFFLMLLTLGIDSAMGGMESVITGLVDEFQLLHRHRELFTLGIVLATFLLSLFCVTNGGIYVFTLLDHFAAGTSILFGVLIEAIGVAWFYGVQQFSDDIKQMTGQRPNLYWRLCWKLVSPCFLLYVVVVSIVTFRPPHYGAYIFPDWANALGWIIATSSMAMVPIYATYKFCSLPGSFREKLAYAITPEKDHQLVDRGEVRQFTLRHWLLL
Description: Displacement of 3,4-[ring-2,5,6-3H]dihydroxyphenylethylamine from rat synaptosomal DAT expressed in HEK293 cells by microplate scintillation counter

in vitro = settings: human, Caco-2
Description: Apparent permeability from apical to basolateral side of the human Caco-2 cells

[4] = Volume of distribution in Sprague-Dawley rat at 2.5 mg/kg, iv; assay type: ADME, organism-based; design: dose 2.5 mg/kg, route intravenous; settings: in vivo
[5] = Apparent oral clearance in Sprague-Dawley rat at 10 mg/kg, po; assay type: ADME, organism-based; design: dose 10 mg/kg, route oral; settings: in vivo
[6] = Plasma clearance in Sprague-Dawley rat at 2.5 mg/kg, iv; assay type: ADME, organism-based; design: dose 2.5 mg/kg, route intravenous
[7] = Partition coefficient, log P of the compound; assay type: physicochemical; settings: octanol/water
[8] = Half life in Sprague-Dawley rat at 2.5 mg/kg, iv; assay type: ADME, organism-based; design: dose 2.5 mg/kg, route intravenous; settings: in vivo
[9] = AUC in Sprague-Dawley rat at 10 mg/kg, po; assay type: ADME, organism-based; design: dose 10 mg/kg, route oral; settings: plasma
Rattus norvegicus [10] = species: Rattus norvegicus; experiment: Reversal of pin-prick-induced neuropathic mechanical hyperalgesia in Harlan Sprague-Dawley rat sciatic nerve ligation model; assay type: functional, organism-based
[11] = Metabolic stability in rat liver microsomes assessed as systemic clearance at 1 uM after 15 mins by LC-MS/MS analysis; assay type: ADME, Microsome
[12] = Tmax in Sprague-Dawley rat at 10 mg/kg, po; assay type: ADME, organism-based; design: dose 10 mg/kg, route oral; settings: in vivo
in vivo [13] = settings: Sprague-Dawley, rat, brain/plasma, po, 10 mg/kg
Description: Ratio of drug level in brain to plasma in Sprague-Dawley rat at 10 mg/kg, po after 4 hrs

[14] = Bioavailability in Sprague-Dawley rat at 2.5 mg/kg, iv; assay type: ADME, organism-based; settings: in vivo
[15] = Mean residence time in Sprague-Dawley rat at 2.5 mg/kg, iv; assay type: ADME, organism-based; design: dose 2.5 mg/kg, route intravenous; settings: in vivo
[16] = Volume of distribution at steady state in Sprague-Dawley rat at 2.5 mg/kg, iv; assay type: ADME, organism-based; design: dose 2.5 mg/kg, route intravenous; settings: in vivo, read-out: Vdss
Rattus norvegicus [17] = experiment: Antinociceptive activity in CD rat assessed as reduction in number of hind paw flinching at 100 mg/kg, po by formalin test; assay type: functional, organism-based; design: dose 100 mg/kg
[18] = Apparent elimination half life in Sprague-Dawley rat at 10 mg/kg, po; assay type: ADME, organism-based; design: dose 10 mg/kg, route oral; settings: in vivo, read-out: beta t1/2 (converted)
[19] = Metabolic stability in human liver microsomes assessed as systemic clearance at 1 uM after 15 mins by LC-MS/MS analysis; assay type: ADME, Microsome
[20] = Cmax in Sprague-Dawley rat at 10 mg/kg, po; assay type: ADME, organism-based; design: dose 10 mg/kg, route oral; settings: in vivo
in vivo [21] = settings: Sprague-Dawley, rat, brain/plasma, po, 10 mg/kg; remark: listed apart in the source
Description: Ratio of drug level in brain to plasma in Sprague-Dawley rat at 10 mg/kg, po after 1 hr

[22] = AUC in Sprague-Dawley rat at 2.5 mg/kg, iv; assay type: ADME, organism-based; design: dose 2.5 mg/kg, route intravenous; settings: plasma
[23] = Lipophilicity, log D of the compound; assay type: physicochemical; settings: octanol/water
[24] = biological target: Sodium-dependent serotonin transporter (Homo sapiens, UniProt P31645); experiment: biochemical
Sodium-dependent serotonin transporter (Homo sapiens, UniProt P31645), sequence (P31645 whole entry): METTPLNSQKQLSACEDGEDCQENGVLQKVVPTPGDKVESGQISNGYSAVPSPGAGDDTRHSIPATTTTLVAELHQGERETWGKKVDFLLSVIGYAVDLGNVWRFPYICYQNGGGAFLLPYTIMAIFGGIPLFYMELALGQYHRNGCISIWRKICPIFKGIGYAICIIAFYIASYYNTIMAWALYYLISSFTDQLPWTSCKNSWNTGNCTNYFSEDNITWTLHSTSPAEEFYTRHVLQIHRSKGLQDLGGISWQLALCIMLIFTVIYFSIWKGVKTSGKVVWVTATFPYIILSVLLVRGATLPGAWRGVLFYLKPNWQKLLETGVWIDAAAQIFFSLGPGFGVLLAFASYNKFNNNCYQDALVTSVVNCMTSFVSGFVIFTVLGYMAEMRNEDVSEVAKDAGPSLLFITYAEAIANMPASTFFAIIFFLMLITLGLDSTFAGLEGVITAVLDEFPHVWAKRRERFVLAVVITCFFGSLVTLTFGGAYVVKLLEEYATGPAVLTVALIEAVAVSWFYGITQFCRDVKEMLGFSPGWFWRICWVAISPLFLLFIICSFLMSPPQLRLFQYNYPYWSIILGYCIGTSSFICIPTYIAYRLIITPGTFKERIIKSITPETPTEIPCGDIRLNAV
Description: Displacement of [alpha,beta-3H(N)]-5-hydroxytryptamine from human cloned SERT expressed in HEK293 cells by microplate scintillation counter

[25] = biological target: Sodium-dependent noradrenaline transporter (Homo sapiens, UniProt P23975); experiment: biochemical
Sodium-dependent noradrenaline transporter, sequence (P23975 whole entry): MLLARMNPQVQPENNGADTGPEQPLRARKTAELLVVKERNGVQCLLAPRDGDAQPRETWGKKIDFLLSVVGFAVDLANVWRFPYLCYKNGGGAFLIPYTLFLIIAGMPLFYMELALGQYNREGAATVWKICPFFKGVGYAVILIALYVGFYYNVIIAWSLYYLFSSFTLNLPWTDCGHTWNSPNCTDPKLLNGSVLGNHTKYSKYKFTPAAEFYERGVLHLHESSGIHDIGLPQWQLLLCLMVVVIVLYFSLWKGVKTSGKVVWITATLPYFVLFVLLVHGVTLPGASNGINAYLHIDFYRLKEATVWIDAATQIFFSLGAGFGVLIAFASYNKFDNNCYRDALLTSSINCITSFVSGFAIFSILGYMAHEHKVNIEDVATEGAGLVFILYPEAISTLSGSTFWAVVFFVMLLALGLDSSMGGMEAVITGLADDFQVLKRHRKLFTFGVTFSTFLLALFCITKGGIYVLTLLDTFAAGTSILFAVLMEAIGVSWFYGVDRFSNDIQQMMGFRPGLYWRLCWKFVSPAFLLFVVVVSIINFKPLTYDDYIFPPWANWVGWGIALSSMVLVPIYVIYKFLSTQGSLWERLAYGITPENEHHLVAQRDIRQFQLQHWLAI
Description: Displacement of Levo[ring-2,5,6-3H]norepinephrine from human cloned NET expressed in HEK293 cells by microplate scintillation counter

[26] = biological target: Sodium-dependent dopamine transporter (Homo sapiens, UniProt Q01959); experiment: biochemical
Sodium-dependent dopamine transporter (Homo sapiens, UniProt Q01959), sequence (Q01959 whole entry): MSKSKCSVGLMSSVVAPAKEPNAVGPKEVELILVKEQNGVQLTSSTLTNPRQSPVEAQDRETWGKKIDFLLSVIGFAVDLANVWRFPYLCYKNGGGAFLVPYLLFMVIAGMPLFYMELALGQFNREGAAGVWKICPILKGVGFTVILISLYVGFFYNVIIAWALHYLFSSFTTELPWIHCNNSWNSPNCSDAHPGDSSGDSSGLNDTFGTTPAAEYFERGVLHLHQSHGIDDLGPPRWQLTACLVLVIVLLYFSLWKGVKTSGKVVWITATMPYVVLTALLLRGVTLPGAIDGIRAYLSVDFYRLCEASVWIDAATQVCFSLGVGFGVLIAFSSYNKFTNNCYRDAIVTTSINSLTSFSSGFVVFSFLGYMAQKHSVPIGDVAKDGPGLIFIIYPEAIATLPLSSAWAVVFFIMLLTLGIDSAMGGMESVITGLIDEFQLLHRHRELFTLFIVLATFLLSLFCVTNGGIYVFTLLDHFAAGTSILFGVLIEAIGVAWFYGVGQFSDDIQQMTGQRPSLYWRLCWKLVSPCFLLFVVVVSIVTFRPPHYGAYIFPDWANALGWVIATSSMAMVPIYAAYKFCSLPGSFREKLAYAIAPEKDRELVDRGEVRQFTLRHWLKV
Description: Displacement of 3,4-[ring-2,5,6-3H]dihydroxyphenylethylamine from human cloned DAT expressed in HEK293 cells by microplate scintillation counter

[27] = Drug level in Sprague-Dawley rat brain at 30 mg/kg, po after 1 hr; assay type: ADME, organism-based; design: dose 30 mg/kg, route oral; settings: read-out: Drug uptake
[28] = Cmax in Sprague-Dawley rat at 30 mg/kg, po; assay type: ADME, organism-based; design: dose 30 mg/kg, route oral; settings: in vivo
[29] = Drug level in Sprague-Dawley rat brain at 30 mg/kg, po after 4 hrs; assay type: ADME, organism-based; design: dose 30 mg/kg, route oral; settings: read-out: Drug uptake
[30] = Tmax in Sprague-Dawley rat at 30 mg/kg, po; assay type: ADME, organism-based; design: dose 30 mg/kg, route oral; settings: in vivo
[31] = Ratio of drug level in brain to plasma in Sprague-Dawley rat at 30 mg/kg, po after 4 hrs; assay type: ADME, organism-based; design: dose 30 mg/kg, route oral
[32] = Apparent elimination half life in Sprague-Dawley rat at 30 mg/kg, po; assay type: ADME, organism-based; design: dose 30 mg/kg, route oral; settings: in vivo, read-out: beta t1/2 (converted)
[33] = Apparent oral clearance in Sprague-Dawley rat at 30 mg/kg, po; assay type: ADME, organism-based; design: dose 30 mg/kg, route oral; settings: in vivo
[34] = Ratio of drug level in brain to plasma in Sprague-Dawley rat at 30 mg/kg, po after 1 hr; assay type: ADME, organism-based; design: dose 30 mg/kg, route oral
[35] = AUC in Sprague-Dawley rat at 30 mg/kg, po; assay type: ADME, organism-based; design: dose 30 mg/kg, route oral; settings: plasma

Transporter, sequence (Q63380 whole entry): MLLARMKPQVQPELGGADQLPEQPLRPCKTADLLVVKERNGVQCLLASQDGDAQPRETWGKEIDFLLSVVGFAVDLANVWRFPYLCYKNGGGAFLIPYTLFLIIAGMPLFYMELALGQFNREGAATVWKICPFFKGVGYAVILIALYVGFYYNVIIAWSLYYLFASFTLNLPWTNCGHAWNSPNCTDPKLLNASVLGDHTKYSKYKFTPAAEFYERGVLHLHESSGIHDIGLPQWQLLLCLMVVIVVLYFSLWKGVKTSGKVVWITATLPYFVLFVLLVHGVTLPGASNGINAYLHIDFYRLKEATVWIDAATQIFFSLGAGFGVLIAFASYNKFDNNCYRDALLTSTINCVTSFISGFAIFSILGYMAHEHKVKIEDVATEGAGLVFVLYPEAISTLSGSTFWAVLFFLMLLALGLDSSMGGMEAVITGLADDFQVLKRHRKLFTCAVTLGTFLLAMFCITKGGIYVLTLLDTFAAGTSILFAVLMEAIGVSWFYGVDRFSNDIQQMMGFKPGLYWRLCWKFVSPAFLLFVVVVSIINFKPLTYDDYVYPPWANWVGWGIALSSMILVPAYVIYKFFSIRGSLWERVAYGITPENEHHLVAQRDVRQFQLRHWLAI
Description for physchem: Dissociation constant, pKa of the compound

## C=CCN(CC)C(=O)[C@@]1(c2ccsc2)C[C@H]1CN
Transporter
  IC50: 0.0064 µM
Rattus norvegicus [1]
  Activity: 56%
[2]
  IC50: 0.027 µM
[3]
  IC50: > 10 µM

## C[C@H]1O[C@@H](O[C@H]2[C@@H](O)C[C@H](O[C@H]3[C@@H](O)C[C@H](O[C@H]4CC[C@@]5(C)[C@H](CC[C@@H]6[C@@H]5C[C@@H](O)[C@]5(C)[C@@H](C7=CC(=O)OC7)CC[C@]65O)C4)O[C@@H]3C)O[C@@H]2C)C[C@H](O)[C@@H]1O [DIGOXIN]
In vitro
  Papp A→B: 1 ×10⁻⁶ cm/s

## CCN(CC)C(=O)[C@]1(c2ccccc2)C[C@H]1CN
[4]
  Vd: 4.3 L/kg
[5]
  CL/F: 294 mL/min/kg
[6]
  clearance: 58 mL/min/kg
[7]
  logP: 1.6
Transporter
  IC50: 0.016 µM
Rattus norvegicus [1]
  Activity: 56%
[8]
  half-life: 48 min
[9]
  AUC: 566 ng·h/mL
Rattus norvegicus [10]
  Activity: Dose-dependent effect
[2]
  IC50: 0.028 µM
[11]
  CLhep predicted at 1 µM: 24 mL/min/kg
[12]
  Tmax: 18 min
In vivo [13]
  Kp at 4 h: 0.86
[14]
  bioavailability: 16%
[15]
  MRT: 31.2 min
[16]
  Vd: 2 L/kg
Rattus norvegicus [17]
  Activity: Active
[3]
  IC50: 20 µM
[18]
  half-life: 78 min
[19]
  CLhep predicted at 1 µM: 5 mL/min/kg
[20]
  Cmax: 232 ng/mL
In vivo [21]
  Kp at 1 h: 0.42
[22]
  AUC: 897 ng·h/mL
[23]
  logD: -0.2
physchem
  pKa: 9.6

## C=CCN(Cc1nccs1)C(=O)[C@@]1(c2cccs2)C[C@H]1CN
[24]
  IC50: 0.016 µM
[7]
  logP: 1.6
[25]
  IC50: 0.013 µM
[11]
  CLhep predicted at 1 µM: 47 mL/min/kg
In vitro
  Papp A→B: 6.4 ×10⁻⁶ cm/s
[26]
  IC50: > 10 µM
[19]
  CLhep predicted at 1 µM: 7 mL/min/kg
[23]
  logD: -0.4
physchem
  pKa: 9.4

## C#CCN(CC#C)C(=O)[C@@]1(c2cccs2)C[C@H]1CN
[24]
  IC50: 0.026 µM
[7]
  logP: 1.5
[25]
  IC50: 0.006 µM
[11]
  CLhep predicted at 1 µM: 43 mL/min/kg
In vitro
  Papp A→B: 25 ×10⁻⁶ cm/s
[26]
  IC50: > 10 µM
[19]
  CLhep predicted at 1 µM: 2.6 mL/min/kg
[23]
  logD: 0.2
physchem
  pKa: 9.3

## C=CCN(CC)C(=O)[C@@]1(c2cccs2)C[C@H]1CN
[24]
  IC50: 0.14 µM
[25]
  IC50: 0.015 µM
[11]
  CLhep predicted at 1 µM: 62 mL/min/kg
In vitro
  Papp A→B: 13.7 ×10⁻⁶ cm/s
[26]
  IC50: > 10 µM
[19]
  CLhep predicted at 1 µM: 11 mL/min/kg

## NC[C@@H]1C[C@@]1(C(=O)N1Cc2ccccc2C1)c1cccs1
[24]
  IC50: 0.013 µM
[27]
  concentration at 1 h: 28 ng/g
[28]
  Cmax: 58 ng/mL
[7]
  logP: 2.2
Transporter
  IC50: 0.015 µM
Rattus norvegicus [1]
  Activity: 56%
[29]
  concentration at 4 h: 24 ng/g
[30]
  Tmax: 66 min
[31]
  Kp at 4 h: 1.8
[25]
  IC50: 0.021 µM
[2]
  IC50: 0.025 µM
[11]
  CLhep predicted at 1 µM: 64 mL/min/kg
In vitro
  Papp A→B: 8.4 ×10⁻⁶ cm/s
[32]
  half-life: 138 min
[33]
  CL/F: 1840 mL/min/kg
[3]
  IC50: 2 µM
[26]
  IC50: 5.54 µM
[19]
  CLhep predicted at 1 µM: 8.8 mL/min/kg
[34]
  Kp at 1 h: 1
[35]
  AUC: 272 ng·h/mL
[23]
  logD: 0.5
physchem
  pKa: 9.5
